Results as given in patent publication US20240197677A1 (VIVIER CANADA INC., priority 2016, published 2024).

How the values were obtained:
[1] = cited from earlier work
[2] = system: EpiDermFT™ (EFT-400) human in vitro tissue model
Experimental: EFT-400 tissues were treated with test compound every 48 hours for 4, 7 and 10 days.
Epidermal thickness was assessed by measuring 10 random regions of the Hematoxylin and Eosin (H&E) stained tissue sections using OlyVIA™ software.

Compound	pKa [1]	Thickness of H&E stained tissue sections (FIGS. 1A-F) ([2]; 0.1% Putrescine for 4 days)	Epidermis Thickness, Tissue1, Av. ([2]; 0.1% Test Article, EFT-400 Tissue1, average of 10 regions) [μm]	Epidermis Thickness, Tissue2, Av. ([2]; 0.1% Test Article, EFT-400 Tissue2, average of 10 regions) [μm]	Epidermis Thickness, Tissue3, Av. ([2]; 0.1% Test Article, EFT-400 Tissue3, average of 10 regions) [μm]	Epidermis Thickness, Av. of three tissues ([2]; 0.1% Test Article, average over Tissue1-3 (untreated 80.264 μm)) [μm]	Average increase of epidermal thickness versus untreated tissues ([2]; 0.1% putrescine)	Epidermal thickness, average ([2]; 0.1% putrescine basolaterally in culture medium, 10 random regions of H&E sections) [μm]	Epidermal tissue thickness, visual (Cytokeratin 10 / desmoplakin-1 immunostaining) ([2]; after 4 days, 0.1% Putrescine)	Tissue morphology ([2]; day 4, 0.1% Putrescine)
O=C1O[C@H]([C@@H](O)CO)C(O)=C1O [Vitamin C, L-ascorbic acid, reference compound]	around 4.17									
Cl.Cl.NCCCCN [putrescine, 1,4-Diaminobutane dihydrochloride]	10.51	increased thickness	113.846	117.160	121.676	117.561	over 46%	117.561	visually appear thicker than the untreated control tissues	consistent with healthy tissue
